Common to all, as to type: in vivo
For data set [1], the system named is mice. Briefly: Object-recognition task (V-maze, discrimination index). The protocol: Object-recognition memory was assayed in the V-maze, a black Plexiglas maze with two corridors (30 cm long x 4.5 cm wide) set in V with a 90 degrees angle, and 15 cm high walls. The test was performed as previously described (Puighermanal, E. et al., 2009. Nature Neuroscience, 12:1152-1158). Briefly, a discrimination index was calculated in the test session. All the drugs (temsirolimus or THC and their vehicles) were injected intraperitoneally after the training session. Objects to be explored in the test were made out of different materials (marble, wood or plastic) and shapes, and had been tested in previous experiments to show no preference or dislike for control mice. On the first day, mice were placed for 9 min in the V-maze for habituation. On the second day, mice were placed back in the V-maze where two objects were positioned at the end of the corridors. On the next day (test day), mice were placed in the V-maze where one of the objects was replaced by a new object. The time spent exploring the familiar object (Tf) and the novel object (Tn) were counted and the discrimination index (D.I.) was calculated as follows: D.I.= [Tn-Tf]/[Tn+Tf]. D.I. close to zero means a cognitive deficit, while D.I. close to 0.5 means a good cognitive function in this memory test.

Data set [2] relates to mice. How it is done:
Elevated plus maze test. The elevated plus maze test was performed in a black Plexiglas apparatus with four arms (29 cm long x 5 cm wide) set in cross from a neutral central square (5 cm x 5 cm) elevated 40 cm above the floor. Five-min test sessions were performed 120 min after drug administration through intraperitoneal injection (temsirolimus and/or THC, and their vehicles). The percentage of time spent in the open arms was determined as a measure of anxiety-like processes. The model is based on rodents' aversion of open spaces. Anxiety reduction in the elevated plus maze test is indicated by an increase in the proportion of time spent in the open arms

Data set [3] relates to mice. Briefly: Antinociception, acetic acid visceral pain test (number of writhes). How it is done: This visceral pain test was performed 120 min after THC administration. Mice received an i.p. administration of acetic acid (0.8 % solution) injected in a volume of […] of body weight. Immediately after, mice were placed in individual transparent cylinders (16 cm high, 16 cm diameter) for 20 min. The number of writhes was counted during 15 min, starting 5 min after acetic acid administration.

As for `CCCCCc1cc(O)c2c(c1)OC(C)(C)[C@@H]1CCC(C)=C[C@@H]21` [THC, (-)-(6aR,10aR)-6,6,9-trimethyl-3-pentyl-6a,7,8,10a-tetrahydro-6H-benzo[c]chromen-1-ol], in data set [1] (mouse, in vivo), the “cognitive deficit on chronic administration (object-recognition test)” value was “produces a cognitive deficit” and the “persistence of cognitive deficit after finishing the exposition to THC” value was “continues showing a cognitive deficit during the following four days”. Also, in data set [1] (mouse, in vivo, ip), the “amnesic effect in the object-recognition test” value is “always presents an amnesic effect”. In addition, in data set [2] (mouse, in vivo), the “anxiety-like effect of THC at low dose” value is “causes anxiolytic effects”. Also, the “anxiety-like effect of THC at high doses” value in data set [2] (mouse, in vivo, 10 mg/kg/day) is “cause anxiogenic effects”. For the same compound, the “analgesic effects (abdominal writhes)” value in data set [3] (mouse, in vivo) is listed as “has analgesic effects”.
`CO[C@H]1C[C@@H]2CC[C@@H](C)[C@@](O)(O2)C(=O)C(=O)N2CCCC[C@H]2C(=O)O[C@H]([C@H](C)C[C@@H]2CC[C@@H](OC(=O)C(C)(CO)CO)[C@H](OC)C2)CC(=O)[C@H](C)/C=C(\C)[C@@H](O)[C@@H](OC)C(=O)[C@H](C)C[C@H](C)/C=C/C=C/C=C/1C` [temsirolimus, (1R,2R,4S)-4-{(2R)-2-[(3S,6R,7E,9R,10R,12R,145,15E,17E,19E,215,23S,26R,27R,34aS)-9,27-dihydroxy-10,21-dimethoxy-6,8,12,14,20,26-hexamethyl-1,5,11,28,29-pentaoxo-1,4,5,6,9,10,11,12,13,14,21,22,23,24,25,26,27,28,29,31,32,33,34,34a-tetracosahydro-3H-23,27-epoxypyrido[2,1-c][1,4]oxazacyclohentriacontin-3-yl]propyl}-2-methoxycyclohexyl 3-hydroxy-2-(hydroxymethyl)-2-methylpropanoate]: the “blockade of the amnesic effect of THC” value in data set [1] (pre-treatment with temsirolimus 1 mg/kg/day (3 mg/m^2/day), THC 10 mg/kg/day (30 mg/m^2/day), Figure 2) is given as “blocks the amnesic effect”. Also, the “prevention of the THC cognitive deficit on chronic co-administration” value in data set [1] (temsirolimus 1 mg/kg/day (3 mg/m^2/day) together with THC 10 mg/kg/day (30 mg/m^2/day), chronic, Figure 3B) is listed as “prevented the appearance of the THC cognitive deficit”. Also, in data set [1] (temsirolimus alone, 1 mg/kg/day (3 mg/m^2/day), i.p., Figure 1), the “effects on the recognition memory” value is reported as “does not have effects on the recognition memory”. In addition, the “amnesic effects (object-recognition test)” value in data set [1] (temsirolimus alone, high doses 10, 30 and 100 mg/kg/day (30, 90 and 300 mg/m^2/day), i.p., Figure 1) is on record as “shows amnesic effects”. Further, in data set [2] (temsirolimus 1 mg/kg/day (3 mg/m^2/day), THC 0.3 mg/kg/day (0.9 mg/m^2/day), Figure 5), the “influence on the anxiolytic effect of THC” value is “does not avoid the anxiolytic effect”. For the same compound, the “blockade of the anxiogenic effects of THC” value in data set [2] (temsirolimus 1 mg/kg/day (3 mg/m^2/day), THC 10 mg/kg/day (30 mg/m^2/day), i.p., test 120 min after administration, Figure 4) is reported as “blocks the anxiogenic effects”. Further, in data set [3] (pre-treatment with temsirolimus 1 mg/kg/day (3 mg/m^2/day) and THC 10 mg/kg/day (30 mg/m^2/day), Figure 6), the “influence on the analgesic capacity of THC” value is reported as “does not affect the analgesic capacity of THC”.
